Test results as given in PMC12040169 (PLOS Biology, 2025).

Assay: in vitro
Details: human, hela cells, % viability

Row | Structure (SMILES) | viability at 28.5 h, 10 µM
1 | COc1cccc2cc(C(=O)NCc3c(F)cccc3F)oc12 [CBK149794] | 65%
2 | Cc1ccc(C)c(CSC2CCN(C3CCOCC3)C2=O)c1 (centres unmarked) [CBK304865] | 103%
3 | Cn1ncc2c(SCc3cc4c(cc3Br)OCCO4)ncnc21 [CBK297732] | 104%
4 | CCn1cc(C2CN(S(=O)(=O)c3cccc(C)c3Cl)CCO2)cn1 (centres unmarked) [CBK304226] | 91.3%
5 | CN(c1ncc(Br)cc1C(=O)NC1CCCCC1)S(C)(=O)=O [CBK076531] | 111%
6 | O=C1N/C(=N/c2cccc(O)c2)S/C1=C1\C(=O)Nc2ccccc21 [CBK265549] | 99.6%
7 | CC(C)CSc1nsc(N)n1 [CBK019938] | 97.1%
8 | COc1cccc(CNc2nccnc2-c2ccsc2)c1OC [CBK037543] | 107%
9 | Oc1ccccc1CNC1(Cc2cc(-c3ccc(F)cc3)on2)COC1 [CBK289655] | 95.8%
10 | Cc1cc(CN2CCN(C(=O)NCc3cccnc3)CC2)on1 [CBK305627] | 114%
11 | Cc1cc(=O)n(CC(=O)NC(C)c2ccccn2)c2ccccc12 (centres unmarked) [CBK281820] | 96.3%
12 | CC(Sc1nc2cc(Cl)ccc2c(=O)n1CC1CCCO1)C(N)=O (centres unmarked) [CBK305935] | 99.6%
13 | Fc1ccc([C@@H]2CN(Cc3cccnc3)C[C@H]2c2cc[nH]n2)cc1 [CBK283054] | 100%
14 | CS(=O)(=O)Nc1ccc2cc(-c3ccc(Oc4ccccc4)cc3)cnc2n1 [CBK085674] | 98%
15 | O=C(Cn1ncc2ccccc2c1=O)NNC(=S)NC1CC2CCC1C2 (centres unmarked) [CBK267892] | 106%
16 | CN(C)CCCC(=O)N1CCN(C(=O)c2ccco2)CC1 [CBK144445] | 111%
17 | Cn1ncc2c1CCCN(C(=O)Cc1ccc3c(c1)CCCO3)C2 [CBK282253] | 87.8%
18 | COc1ccc2nc(Nc3nc(=O)cc(CSc4nc5ccccc5s4)[nH]3)nc(C)c2c1 [CBK264854] | 110%
19 | CC(C)c1ccc(/C=C/C(=O)NC2CC2)cc1 [CBK149640] | 105%
20 | CCC(CC)C(=O)Nc1nc(OC)cnc1-c1ccc(OCOC)cc1 [CBK145207] | 108%
21 | COc1ccc(C(NC(=O)C2CCN(CCOc3ccc(Br)cc3)CC2)c2ccco2)cc1 (centres unmarked) [CBK148311] | 95.8%
22 | Cc1cccc(C)c1OCc1nnc(SCc2ccc([N+](=O)[O-])cc2)n1C [CBK269737] | 105%
23 | CN(Cc1ccccc1)S(=O)(=O)c1ccc(OCC(=O)O)cc1 [CBK276426] | 97.9%

Row | Structure (SMILES) | viability at 28.5 h, 10 µM
24 | CC(=O)Nc1cccc(CN2CCCC2CN2CCCC2CO)c1 (centres unmarked) [CBK305163] | 98.9%
25 | Cc1nnc(CN2CCOC(c3nc(C(C)(C)C)cs3)C2)n1C (centres unmarked) [CBK305772] | 93.1%
26 | O=C(O)c1nccnc1-c1ccc(COc2ccccc2)cc1 [CBK050806] | 90.2%
27 | CC(C)n1c(=O)n(CC(=O)NC2CCCC2)c2cccnc21 [CBK283700] | 89.2%
28 | COc1ccc(C(C)C)cc1-c1cn2ccnc2c(Nc2ccc(N3CCOCC3)cc2)n1 [CBK037338] | 103%
29 | COc1ccc(NC(=O)c2cc(C(C)C)n(-c3nc4ccccc4s3)n2)cc1 [CBK287667] | 100%
30 | CC(Sc1nc2c(N)ncnc2[nH]1)C(=O)O (centres unmarked) [CBK261814] | 106%
31 | Cn1cnnc1SCC(=O)c1cccc(C(F)(F)F)c1 [CBK067718] | 93.5%
32 | O=C(CCN1C(=O)/C(=C\C=C\c2ccccc2)SC1=S)Nc1ccc(C(=O)O)cc1 [CBK264818] | 104%
33 | COc1ccc2[nH]c3c(c2c1)CCOC31CCN(C(=O)N[C@@H](C)c2ccccc2)CC1 [CBK047114] | 98.5%
34 | COc1ccccc1-c1[nH]nc(O)c1Cc1c(Cl)cccc1Cl [CBK107933] | 86.1%
35 | CC1CCc2c(C(=O)N3CCC4(CC3)NC(=O)NC4=O)csc2C1 (centres unmarked) [CBK305741] | 101%
36 | O=S(=O)(Nc1nnc(C(F)(F)F)s1)c1ccc(Br)cc1 [CBK200047] | 89.6%
37 | O=S(=O)(CCSc1nc2ccccc2s1)c1nc2ccccc2s1 [CBK026908] | 92.4%
38 | CCCN1CCCC(NS(=O)(=O)c2cc(-n3cccn3)ccc2OC)C1 (centres unmarked) [CBK307426] | 91.8%
39 | CN(C)C(=O)N1CCC2(CC1)CC(=O)N(Cc1ccc(S(C)(=O)=O)cc1)C2=O [CBK155957] | 104%
40 | COc1ccc(C2=NN(C(=O)CCC(=O)O)C(c3cccs3)C2)cc1OC (centres unmarked) [CBK266656] | 118%
41 | CCCCn1ncnc1-c1cnc2ccnn2c1C [CBK307305] | 114%
42 | CCC(Oc1ccccc1)C(=O)Nc1cc(C)on1 (centres unmarked) [CBK288152] | 101%
43 | Cc1ccc2cc(CNc3ccc4[nH]ncc4c3)c(=O)[nH]c2c1 [CBK281935] | 86.1%
44 | CN1CCN(c2nccnc2OCC2COc3ccccc3O2)CC1 (centres unmarked) [CBK003899C] | 96.7%
45 | Cc1cc(C)nc(Nc2n[nH]c(-c3ccccc3Cl)n2)n1 [CBK288167] | 98.2%
46 | COc1ccc2[nH]cc(CCNC(=O)c3ccccn3)c2c1 [CBK115866] | 95.7%

Row | Structure (SMILES) | viability at 28.5 h, 10 µM
47 | Cn1c(=O)c2[nH]c(N3CCCNCC3)nc2n(C)c1=O [CBK270030] | 97%
48 | COc1ccc(-c2ccc(CNCCCN3CCOCC3)o2)cc1Cl [CBK278312C] | 103%
49 | CCOc1ccc(NC(=O)Nc2ccc(CC(=O)O)cc2)cc1 [CBK266945] | 112%
50 | CCC(=O)N1CCCC1c1nc(C)c2c(n1)N(CCc1ccccc1OC)CCC2 (centres unmarked) [CBK286246] | 95.4%
51 | Nc1nc(CSc2nnc(-c3ccncc3)o2)nc(Nc2ccc(F)cc2)n1 [CBK266221] | 116%
52 | CCNS(=O)(=O)c1ccc(NC(=O)Nc2ccccc2OC)cc1 [CBK270331] | 87.8%
53 | COc1cccc(COc2nccnc2/C=C/c2ccccc2)c1OC [CBK106888] | 89.3%
54 | COc1ccc(C2(C(=O)NCc3ccc(-c4ccc(C(N)=O)c(C)n4)cc3)CCCC2)cc1 [CBK285647] | 96%
55 | Cc1cc(NS(=O)(=O)c2ccccc2Br)n(C)n1 [CBK067376] | 102%
56 | O=C(Nc1cc(N2CCCS2(=O)=O)ccc1F)c1n[nH]c2ccccc12 [CBK304216] | 80.5%
57 | O=C(NC1CC1)N1CCN(CCCOc2ccc(F)cc2)CC1 [CBK025077C] | 111%
58 | CCCn1ccnc1-c1cn(Cc2cc(C(C)(C)C)n[nH]2)nn1 [CBK306791] | 118%
59 | Cc1ccc(C)c(C2CCCN2C(=O)c2cccn(CC(=O)NC3CCCCC3)c2=O)c1 (centres unmarked) [CBK286010] | 93%
60 | CC(C)(C)C(O)CNc1ncnc2ccc(S(C)(=O)=O)cc12 (centres unmarked) [CBK306494] | 76.8%
61 | Cc1noc(C)c1Cn1cc(NS(=O)(=O)c2cccs2)cn1 [CBK044394] | 97.9%
62 | CCOC(=O)C(=O)N(C)c1c(CC)nc2c(OCc3ccccc3)cccn12 [CBK147879] | 86.8%
63 | O=C(c1ccco1)N1CCC(n2c(=O)oc3ccc(Cl)cc32)CC1 [CBK284343] | 103%
64 | O=C(Nc1ccc(S(=O)(=O)Nc2ncccn2)cc1)c1ccc(N2C(=O)c3ccccc3C2=O)cc1 [CBK264868] | 94%
65 | CCOC(=O)c1nc(N)oc1C [CBK056636] | 85.3%
66 | CN(C)c1ccc(-n2ccn(S(=O)(=O)c3ccc(Oc4ccccc4)cc3)c2=O)cc1 [CBK106608] | 89.3%
67 | COC(=O)c1sc2cc(C(F)(F)F)cnc2c1-c1ccccn1 [CBK089888] | 93.2%
68 | COc1ccc(-c2ccc(=O)n(CC(=O)NC(C(=O)O)c3ccccc3)n2)c(F)c1 (centres unmarked) [CBK286769] | 97.3%
69 | CN(C)C(=O)CN1CCC2(C/C=C/COc3ccccc3C(=O)NC[C@@H](Cc3ccccc3)NC2=O)CC1 [CBK292185] | 107%

Row | Structure (SMILES) | viability at 28.5 h, 10 µM
70 | O=C(CCn1c(C(F)(F)F)cc2cccnc21)NC1CCCOC1 (centres unmarked) [CBK284867] | 109%
71 | COc1ccc(C2CC(Cn3cc(C(C)=O)c(=O)[nH]c3=O)ON2C)cc1 (centres unmarked) [CBK019386] | 95.7%
72 | CC(C)N1C(=O)[C@@H]2CN(C(=O)C3CCCC3)CCN2C1=O [CBK289612] | 88.8%
73 | Cc1ccccc1Nc1n[nH]c(=S)s1 [CBK015808] | 111%
74 | CC(NC(=O)C1CCN(Cc2ccc(Oc3ccccc3)cc2)CC1)c1ccccc1 (centres unmarked) [CBK148618] | 107%
75 | CCN1C(=O)COC[C@@H]1[C@H](O)c1ccc(NC(=O)COc2ccccc2)cc1 [CBK289685] | 96.6%
76 | CCc1nc2ccc(C(=O)Nc3ccc4c(c3)CCN4C(C)=O)cn2c1N(C=O)CC [CBK145944] | 102%
77 | C#CCNS(=O)(=O)c1cccc(C(=O)N2CCOC(CC(=O)OC)C2)c1 (centres unmarked) [CBK306138] | 90.8%
78 | C[C@@H]1CN(Cc2ccco2)CCN1C(=O)c1nccc2ccccc12 [CBK285489] | 99.8%
79 | Cc1nc(CN2CCC(O)(c3ccccc3F)CC2)c2ccccn12 [CBK282799] | 98.1%
80 | O=C(Cc1c[nH]c2ccccc12)N1CCc2ccccc21 [CBK200366] | 107%
81 | COc1cnc(-c2cccc(C(F)(F)F)c2)c(NC(=O)Cc2ccccc2)n1 [CBK145308] | 104%
82 | COc1ccc(CN2C(=O)CO[C@H]3CN(C(=O)COc4ccccc4)C[C@H]32)cc1 [CBK289262] | 108%
83 | CC(=O)Oc1ccc(C(=O)NCc2ccc3c(c2)OCO3)cc1 [CBK264372] | 91.2%
84 | CS(=O)(=O)c1ccc(-n2nnnc2CN2CCC3(CCCC3)C2)cc1 [CBK306178] | 89.4%
85 | O=S(=O)(c1ccc(-n2cnc(Cl)c2Cl)cc1)N1CCN(Cc2ccc(O)c(F)c2)CC1 [CBK062803] | 95.8%
86 | O=C(Nc1cc(Oc2cccnc2)cc([N+](=O)[O-])c1)c1cc2nc(-c3ccco3)cc(C(F)(F)F)n2n1 [CBK262534] | 110%
87 | COc1cc(NC(=O)Nc2ccccc2OC)c(OC)cc1Cl [CBK270329] | 95.7%
88 | O=C(NC1CCCN(c2cc(-c3ccncc3)n[nH]2)C1)c1ccsc1 (centres unmarked) [CBK288619] | 104%
89 | O=C(O)c1cccc(NS(=O)(=O)c2ccc(F)c(C(F)(F)F)c2)c1 [CBK155693] | 97.2%
